The record followed here is publication PMC3842914, “Meleagrin, a New FabI Inhibitor from Penicillium chryosogenum with at Least One Additional Mode of Action” (PLoS ONE, 2013).

The subject of one experiment is S. pneumoniae KCTC 3932. Briefly: MIC by broth microdilution, S. pneumoniae KCTC 3932. The class given is cell-based. Particulars: Streptococcus pneumoniae. On the procedure: (§1) Whole-cell antimicrobial activity was determined by broth microdilution as described previously. The test strains except for S. pneumoniae were grown to mid-log phase in Mueller–Hinton broth and diluted 1,000-fold in the same medium. Cells (10^5/mL) were inoculated into Mueller–Hinton broth and dispensed at 0.2 mL/well into a 96-well microtiter plate. S. pneumoniae was grown in tryptic soy broth supplemented with 5% sheep blood. MICs were determined in triplicate by serial 2-fold dilutions of test compounds. […] Bacterial growth was determined by measuring the absorption at 650 nm by using a microtiter ELISA reader.
(Dilution methods test growth across graded concentrations, often in twofold steps.)

In experiment [1] the test system is incorporation of [1-14C] acetate into membrane fatty acids in S. aureus. Briefly: [14C] acetate incorporation into membrane fatty acids in S. aureus. The experiment is classed as cell-based, Staphylococcus aureus. The following applies: for IC50: Staphylococcus aureus, read-out: IC50 [14C] acetate incorporation; for Inhibition of acetate incorporation relative to the less active compounds 1, 3, and 4: [1-14C] acetate into membrane fatty acids in S. aureus. On the procedure:
(§2) To monitor the effects of compound 1 on lipid, DNA, RNA, protein, and cell wall biosynthesis, its effects on the incorporation of [1-^14C] acetate (50 mCi/mmol), [2-^14C] thymidine (59.8 mCi/mmol), [U-^14C] uridine (539 mCi/mmol), L-[U-^14C] leucine (306 mCi/mmol) or L-[U-^14C] isoleucine (329 mCi/mmol), and N-acetyl-D-[1-^14C] glucosamine (58.1 mCi/mmol) into S. aureus and S. pneumoniae were measured as described previously. S. aureus was exponentially grown to an A650 of 0.2 in Mueller–Hinton broth. S. pneumoniae was grown in tryptic soy broth supplemented with 5% sheep blood. […] An equal volume of DMSO solvent was added to the untreated control. After incubation with the radiolabeled precursors at 37°C for 1 h, followed by centrifugation, the cell pellets were washed twice with PBS buffer. After acetate incorporation, the total cellular lipids were extracted with chloroform-methanol-water. The incorporated radioactivity in the chloroform phase was measured by scintillation counting. For the other precursors, incorporation was terminated by adding 10% (w/v) TCA and cooling on ice for 20 min. The precipitated material was collected on Whatman GF/C glass microfiber filters, washed with TCA and ethanol, dried, and counted using a scintillation counter. […] In all experiments, known antibacterial agents were included as positive controls.
We measured their effects on the incorporation of [1-^14C] acetate into membrane fatty acids in S. aureus.

A further experiment relates to S. aureus RN4220. Briefly: MIC by broth microdilution, S. aureus RN4220 (wild type). The class given is cell-based, Staphylococcus aureus. The following applies: for MIC: Staphylococcus aureus, S. aureus RN4220 (wild type); for Antibacterial activity relative to compound 1: against S. aureus RN4220 and E. coli KCTC 1924. On the procedure: as §1
Another experiment deals with T1, S. aureus FabI (Staphylococcus aureus, UniProt Q6GI75).
T1 construct: made in house
T1 sequence (Q6GI75 1-256): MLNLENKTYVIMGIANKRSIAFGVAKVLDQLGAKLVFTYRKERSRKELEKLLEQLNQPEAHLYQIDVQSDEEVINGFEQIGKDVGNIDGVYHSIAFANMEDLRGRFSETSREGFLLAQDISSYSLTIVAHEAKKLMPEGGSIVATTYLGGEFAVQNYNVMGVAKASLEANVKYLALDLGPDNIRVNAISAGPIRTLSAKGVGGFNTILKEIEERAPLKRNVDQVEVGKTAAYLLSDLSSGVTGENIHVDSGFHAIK
Briefly: S. aureus FabI enzyme assay (NADPH use at 340 nm, t-o-NAC thioester substrate). The class given is biochemical. The source says: S. aureus FabI and E. coli FabI enzymes were cloned, overexpressed, and purified as described previously. The wild-type fabK gene was amplified by PCR from genomic DNA obtained from Streptococcus pneumoniae KCTC 5412 by using the primers 5′-[…]-3′ and 5′-[…]-3′, which contained NdeI and XhoI restriction sites, respectively. After the DNA sequence was confirmed, the gene was cloned into the pET22b vector (Novagen, Gibbstown, NJ, USA). The construct was transformed into E. coli BL21 (DE3) for expression following induction with isopropylthiogalactoside. The C-terminal His-tagged protein was purified as described previously. Assays were conducted in half-area, 96-well microtiter plates. The compounds were dissolved in DMSO and evaluated in 100-μL assay mixtures containing components specific for each enzyme (see below). Reduction of the trans-2-octenoyl N-acetylcysteamine (t-o-NAC thioester) substrate analog was measured spectrophotometrically following the utilization of NADH or NADPH at 340 nm at 30°C for the linear period of the assay. S. aureus FabI assays contained 50 mM sodium acetate (pH 6.5), 200 μM t-o-NAC thioester, 200 μM NADPH, and 150 nM S. aureus FabI.
NADH was used as a cofactor rather than NADPH for the E. coli FabI assay. Substrate concentrations used for the Lineweaver–Burk plot were 100, 200, 300, and 400 μM, whereas the concentrations of the cofactor were 100, 200, 400, and 600 μM. The rate of decrease in the amount of NADPH in each reaction was measured with a microtiter enzyme-linked immunosorbent assay (ELISA) reader by using the SOFTmax PRO software (Molecular Devices, Sunnyvale, CA, USA). The inhibitory activity was calculated according to the following formula: % of inhibition = 100× [1− (rate in the presence of compound/rate in the untreated control)]. IC50 values were calculated by fitting the data to a sigmoid equation. An equal volume of DMSO solvent was used for the untreated control. FabK assays contained 100 mM sodium acetate (pH 6.5), 2% glycerol, 200 mM NH4Cl, 50 µM t-o-NAC thioester, 200 µM NADH, and 150 nM S. pneumoniae FabK.

Experiment [2] deals with incorporation of leucine into proteins in S. aureus. Briefly: [14C] leucine incorporation into proteins in S. aureus. The experiment is classed as cell-based. The following applies: Staphylococcus aureus. On the procedure:
as §2, with “counter. The total counts incorporated at 1 h of incubation without inhibitors ranged from >7,000 for [U-^14C] uridine to <13,000 for [1-^14C] acetate.” for “counter.”
We measured their effects on the incorporation of [1-^14C] acetate into membrane fatty acids in S. aureus. […] In contrast, the incorporation of leucine into proteins was not inhibited by the active compounds (Table 1), whereas the protein synthesis inhibitor, chloramphenicol, inhibited incorporation (data not shown).

[3] abbreviates: KCTC3932, read-out: MIC S. pneumoniae.
[4] abbreviates: with respect to trans-2-octenoyl N-acetylcysteamine.
[5] abbreviates: KCTC3932, S. pneumoniae KCTC 3932, read-out: MIC S. pneumoniae.
The mark [6] stands for this setting: S. aureus FabI, read-out: IC50 saFabI.

≈ marks a conversion by molar mass, not a printed value. Like-named read-outs stand apart in the source and are kept apart here.

Take `C=CC(C)(C)C12C=C(O)C(=O)N3/C(=C/c4cnc[nH]4)C(=O)NC31N(OC)c1ccccc12` (stereo not drawn) [Compound 1, meleagrin]: the MIC in the experiment with S. pneumoniae KCTC 3932 (setting [3]) and against S. aureus RN4220 was 64 µg/mL (≈ 148 µM) throughout. Also, the IC50 in experiment [1] is 40.3 µM; against S. aureus FabI, 40.1 µM; in experiment [2] it was more than 200 µM. Moreover, the Ki came to 32.3 µM on S. aureus FabI (with respect to NADPH) and 39.8 µM at S. aureus FabI (setting [4]). In addition, the “Mode of FabI inhibition” value on S. aureus FabI (with respect to NADPH) is “mixed inhibition”; on S. aureus FabI (setting [4]), “mixed”.

For the compound `C=CC(C)(C)C12C=C(OC)C(=O)N3/C(=C/c4cnc[nH]4)C(=O)NC31N(OC)c1ccccc12` (stereo not drawn) [Compound 3, oxaline], the MIC with S. pneumoniae KCTC 3932 (setting [5]) and against S. aureus RN4220 was 64 µg/mL (≈ 143 µM) each time. Moreover, the IC50 was 33.5 µM in experiment [1], 38.7 µM against S. aureus FabI and more than 200 µM in experiment [2].

Consider `C=CC(C)(C)C12C=C(O)C(=O)N3/C(=C/c4cnc[nH]4)C(=O)N(C)C31N(OC)c1ccccc12` (stereo not drawn) [Compound 4, N^14-methylmeleagrin], for which the MIC in the experiment on S. pneumoniae KCTC 3932 (setting [3]) and in the experiment with S. aureus RN4220 was 64 µg/mL (≈ 143 µM) in each case. Moreover, the IC50 in experiment [1] is 35.7 µM; against S. aureus FabI, 48 µM; in experiment [2], more than 200 µM.

For the compound `C=CC(C)(C)C12C=C(OC)C(=O)N3/C(=C/c4cnc[nH]4)C(=O)N(C)C31N(OC)c1ccccc12` (stereo not drawn) [Compound 5, O,N^14-dimethylmeleagrin], the minimum inhibitory concentration (MIC) in the experiment on S. pneumoniae KCTC 3932 (setting [5]) and against S. aureus RN4220 was 16 µg/mL (≈ 34.7 µM) in each case. Also, the IC50 in experiment [1] was 16.3 µM; at S. aureus FabI (setting [6]), 13.5 µM; in experiment [2], more than 200 µM. The “Inhibition of acetate incorporation relative to the less active compounds 1, 3, and 4” value in experiment [1] is “approximately 2 fold”. In addition, the “Antibacterial activity relative to compound 1” value with S. aureus RN4220 is listed as 2–4 times.

Consider `C=CC(C)(C)C12C=C(OC)C(=O)N3/C(=C/c4cnc[nH]4)C(=O)N(C)C31Nc1ccccc12` (stereo not drawn) [Compound 6, O,N^14-dimethylglandicolin], for which the MIC in the experiment on S. pneumoniae KCTC 3932 (setting [3]) and in the experiment with S. aureus RN4220 was 16 µg/mL (≈ 37.1 µM) throughout. Besides, the IC50 was 19.8 µM in experiment [1], 13.1 µM against S. aureus FabI and more than 200 µM in experiment [2]. The “Inhibition of acetate incorporation relative to the less active compounds 1, 3, and 4” value in experiment [1] is reported as “approximately 2 fold”. Besides, the “Antibacterial activity relative to compound 1” value with S. aureus RN4220 is reported as 2–4 times.

For `C=CC(C)(C)C12C=C(O)C(=O)N3/C(=C/c4cnc[nH]4)C(=O)NC31Nc1c(Br)cccc12` (stereo not drawn) [Compound 7], the MIC in the experiment on S. pneumoniae KCTC 3932 (setting [5]) and in the experiment on S. aureus RN4220 was more than 128 µg/mL each time. Also, the IC50 (in experiment [1]; at S. aureus FabI (setting [6]); in experiment [2]) was more than 200 µM each time.

For the compound `Oc1cc(Cl)ccc1Oc1ccc(Cl)cc1Cl` [Triclosan, reference compound], the minimum inhibitory concentration (MIC) was 64 µg/mL (≈ 221 µM) in the experiment on S. pneumoniae KCTC 3932 (setting [3]) and 0.01 µg/mL (≈ 0.0345 µM) in the experiment with S. aureus RN4220. The IC50 in experiment [1] is 0.04 µM; in experiment [2] it was more than 10 µM.

As usually defined, the MIC is the smallest concentration in the dilution series that meets the test's criterion for growth inhibition. By Ki is commonly meant a dissociation constant, usually derived from enzyme kinetics or from competition with a known ligand.
